Tested on: NHBE cells
Assay: Biolog metabolic array: substrate use by NHBE cells with or without CA09 infection
Format: cell-based, human
Settings: for Substrate use, 590 nm absorbance normalized to zero hour, 1 hr: Biolog PMM2, 1 hr; for Substrate use, 590 nm absorbance normalized to zero hour, 5 hr: Biolog PMM2, 5 hr; for Substrate use, 590 nm absorbance normalized to zero hour, 7 hr: Biolog PMM2, 7 hr
[1] = Control (uninfected) NHBE cells
[2] = Virus (CA09-infected NHBE cells, MOI 1)
[3] = Virus: CA09-infected NHBE cells, MOI 1, Biolog PMM2
[4] = Virus (CA09-infected, MOI 1) NHBE cells

Row | Compound | 590 nm absorbance normalized to zero hour (substrate use), 1 hr [1] | 590 nm absorbance normalized to zero hour (substrate use), 2 hr [1] | 590 nm absorbance normalized to zero hour (substrate use), 3 hr [1] | 590 nm absorbance normalized to zero hour (substrate use), 4 hr [1] | 590 nm absorbance normalized to zero hour (substrate use), 6 hr [1] | 590 nm absorbance normalized to zero hour (substrate use), 8 hr [1] | 590 nm absorbance normalized to zero hour (substrate use), 9 hr [1] | 590 nm absorbance normalized to zero hour (substrate use), 10 hr [1] | 590 nm absorbance normalized to zero hour (substrate use), 11 hr [1] | Substrate use, 590 nm absorbance normalized to zero hour, 1 hr [1] | Substrate use, 590 nm absorbance normalized to zero hour, 5 hr [1] | Substrate use, 590 nm absorbance normalized to zero hour, 7 hr [1] | 590 nm absorbance normalized to zero hour (substrate use), 1 hr [3] | 590 nm absorbance normalized to zero hour (substrate use), 2 hr [3] | 590 nm absorbance normalized to zero hour (substrate use), 3 hr [3] | 590 nm absorbance normalized to zero hour (substrate use), 5 hr [3] | 590 nm absorbance normalized to zero hour (substrate use), 6 hr [3] | 590 nm absorbance normalized to zero hour (substrate use), 7 hr [3] | 590 nm absorbance normalized to zero hour (substrate use), 8 hr [3] | 590 nm absorbance normalized to zero hour (substrate use), 9 hr [3] | also measured
1 | Chondroitin Sulfate C | 1.60 | 1.94 | 2.10 | 2.19 | 3.28 | 2.56 | 2.92 | 3.00 | 2.49 | 1.60 | 2.50 | 2.63 | 1.22 | 1.41 | 1.45 | 1.62 | 1.61 | 1.63 | 1.65 | 1.72 | 590 nm absorbance normalized to zero hour (substrate use), 0 hr [1]: 1.00; Substrate use, 590 nm absorbance normalized to zero hour, 0 hr (Control (uninfected) NHBE cells, Biolog PMM2, 0 hr): 1.00; 590 nm absorbance normalized to zero hour (substrate use), 0 hr [2]: 1.00; 590 nm absorbance normalized to zero hour (substrate use), 1 hr [2]: 1.22; 590 nm absorbance normalized to zero hour (substrate use), 2 hr [2]: 1.41; 590 nm absorbance normalized to zero hour (substrate use), 3 hr [2]: 1.45; 590 nm absorbance normalized to zero hour (substrate use), 5 hr [2]: 1.62; 590 nm absorbance normalized to zero hour (substrate use), 6 hr [2]: 1.61; 590 nm absorbance normalized to zero hour (substrate use), 7 hr [2]: 1.63; 590 nm absorbance normalized to zero hour (substrate use), 8 hr [2]: 1.65; 590 nm absorbance normalized to zero hour (substrate use), 9 hr [2]: 1.72; 590 nm absorbance normalized to zero hour (substrate use), 10 hr [2]: 1.69; 590 nm absorbance normalized to zero hour (substrate use), 11 hr [2]: 1.75; 590 nm absorbance normalized to zero hour (substrate use), 0 hr [3]: 1.00; 590 nm absorbance normalized to zero hour (substrate use), 10 hr [3]: 1.69; 590 nm absorbance normalized to zero hour (substrate use), 11 hr [3]: 1.75
2 | O=C(CO)[C@@H](O)[C@H](O)[C@H](O)COP(=O)(O)O [D-Fructose-6-Phosphate] | 1.03 | 0.90 | 0.59 | 0.97 | 0.23 | 0.49 | 0.97 | 0.92 | 0.64 | 1.03 | 0.54 | 1.00 | 0.59 | 0.75 | 0.87 | 1.11 | 1.18 | 1.27 | 1.35 | 1.49 | 590 nm absorbance normalized to zero hour (substrate use), 1 hr [4]: 0.59; 590 nm absorbance normalized to zero hour (substrate use), 2 hr [4]: 0.75; 590 nm absorbance normalized to zero hour (substrate use), 3 hr [4]: 0.87; 590 nm absorbance normalized to zero hour (substrate use), 4 hr [4]: 0.94; 590 nm absorbance normalized to zero hour (substrate use), 5 hr [4]: 1.11; 590 nm absorbance normalized to zero hour (substrate use), 6 hr [4]: 1.18; 590 nm absorbance normalized to zero hour (substrate use), 7 hr [4]: 1.27; 590 nm absorbance normalized to zero hour (substrate use), 8 hr [4]: 1.35; 590 nm absorbance normalized to zero hour (substrate use), 9 hr [4]: 1.49; 590 nm absorbance normalized to zero hour (substrate use), 10 hr [4]: 1.55; 590 nm absorbance normalized to zero hour (substrate use), 11 hr [4]: 1.65; 590 nm absorbance normalized to zero hour (substrate use), 4 hr [3]: 0.94; 590 nm absorbance normalized to zero hour (substrate use), 10 hr [3]: 1.55; 590 nm absorbance normalized to zero hour (substrate use), 11 hr [3]: 1.65
3 | COC(=O)[C@@H](C)O [Methyl D-Lactate] | 1.36 | 1.52 | 2.08 | 2.04 | 1.34 | 2.16 | 2.39 | 2.41 | 2.99 | 1.36 | 2.26 | 2.14 | 2.10 | 2.49 | 2.89 | 2.75 | 2.94 | 3.10 | 3.20 | 3.46 | 590 nm absorbance normalized to zero hour (substrate use), 1 hr [4]: 2.10; 590 nm absorbance normalized to zero hour (substrate use), 2 hr [4]: 2.49; 590 nm absorbance normalized to zero hour (substrate use), 3 hr [4]: 2.89; 590 nm absorbance normalized to zero hour (substrate use), 4 hr [4]: 2.64; 590 nm absorbance normalized to zero hour (substrate use), 5 hr [4]: 2.75; 590 nm absorbance normalized to zero hour (substrate use), 6 hr [4]: 2.94; 590 nm absorbance normalized to zero hour (substrate use), 7 hr [4]: 3.10; 590 nm absorbance normalized to zero hour (substrate use), 8 hr [4]: 3.20; 590 nm absorbance normalized to zero hour (substrate use), 9 hr [4]: 3.46; 590 nm absorbance normalized to zero hour (substrate use), 10 hr [4]: 3.46; 590 nm absorbance normalized to zero hour (substrate use), 11 hr [4]: 3.61; 590 nm absorbance normalized to zero hour (substrate use), 4 hr [3]: 2.64; 590 nm absorbance normalized to zero hour (substrate use), 10 hr [3]: 3.46; 590 nm absorbance normalized to zero hour (substrate use), 11 hr [3]: 3.61
